# Data: US9034861B2, “MEK inhibitors useful in the treatment of diseases” (Allomek Therapeutics LLC, priority 2009, dated 2015)
# Read-outs that look alike come from different tables or passages of the source.
# Legend:
# HT29 cells = test: Proliferation / cell survival assay (CellTiterGlo, 72 hour); type: cell-based
# Description: (§1) In vitro studies of variety of tumor cells lines with prevalent mutations in RAS/RAF genes were performed for anti-proliferative activity (functional assay). This was compared with wild type cell line for selectivity. MEK kinase assay was performed in the presence and in the absence of ATP to define its allosteric inhibitory mode of action; Effect on ERK phosphorylation was studied to establish its cellular mechanism of action.
# (§2) Colo205, Caki-1, HepG2, HCT116 and HT29 cells were obtained from American Type Culture Collection. Colo205, Caki-1, HepG2 cells were grown in RPMI 1640 medium supplemented with L-glutamine (Invitrogen) and 10% Fetal Bovine Serum (Hyclone) at 37° C. in a humidified, 5% CO2 incubator. HCT116 and HT29 cells were grown in DMEM medium supplemented with L-glutamine (Invitrogen) and 10% Fetal Bovine Serum (Hyclone) at 37° C. in a humidified, 5% CO2 incubator.
# (§3) Proliferation assay was done by plating 2,000 cells/well in 100 μL of DMEM/10% FBS or RPMI/10% media in a 96-well plate and incubated overnight at 37° C. in a humidified, 5% CO2 incubator. Media was replaced with fresh 100 μL of fresh RPMI/10% FBS media or DMEM/10% FBS media containing various concentrations of the compounds. Compounds were added at 3-fold dilutions, concentrations ranging from 3.3 μM to 4.5 nM. After 72 hour incubation with the compounds at 37° C. in a humidified, 5% CO2 incubator, cell viability was measured in a luminometer after the addition of 100 μL/well CellTiterGlo reagent (Promega). IC50s were calculated using SoftMax software.
# [1] = target: T1, recombinant full-length human GST-MEK1 (Homo sapiens, UniProt Q02750); test: MEK Enzyme Inhibitory Assay (ADP-Glo); type: biochemical
# T1 construct: Purified recombinant full-length human GST-MEK1; GST; purchased Cell Signaling Technology, Inc (Beverly, Mass., USA)
# T1 sequence (Q02750 whole entry): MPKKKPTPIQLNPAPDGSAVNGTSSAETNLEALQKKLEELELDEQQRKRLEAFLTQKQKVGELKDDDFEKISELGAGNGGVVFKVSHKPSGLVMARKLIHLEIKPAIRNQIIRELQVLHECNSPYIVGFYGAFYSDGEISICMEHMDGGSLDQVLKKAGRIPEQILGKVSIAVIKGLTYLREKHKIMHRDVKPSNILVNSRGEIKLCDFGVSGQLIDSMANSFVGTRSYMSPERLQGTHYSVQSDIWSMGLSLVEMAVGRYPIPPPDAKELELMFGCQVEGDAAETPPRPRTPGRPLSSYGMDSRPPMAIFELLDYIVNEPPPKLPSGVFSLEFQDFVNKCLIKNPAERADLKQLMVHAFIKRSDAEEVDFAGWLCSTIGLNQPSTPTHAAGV
# Description: Materials and preparation of reagents: Purified recombinant full-length human GST-MEK1 was purchased from Cell Signaling Technology, Inc (Beverly, Mass., USA). MAP kinase substrate Erk1/Erk2 peptide was purchased from Enzo Life Sciences (Plymouth Meeting, Pa., USA).
# Determination of enzymatic activity: Compounds were diluted three-fold in dimethylsulfoxide (DMSO) ranging from 1 mM to 1.37 μM concentration. A typical 20-microliter assay contained 80 ng MEK1, 4 μg Erk1/Erk2 peptide, 100 μM or 1 mM ATP, 1 μM to 1.37 nM test compound in 1× assay buffer containing 5 mM MOPS, pH 7.2, 2.5 mM β-glycerophosphate, 1 mM EGTA, 0.4 mM EDTA, 5 mM MgCl2, 0.05 mM DTT. Enzyme reaction was incubated at room temperature for 90 minutes. At the end of kinase reaction, 20 μL of ADP-Glo reagent (Promega, Madison, Wis., USA) was added and incubated at room temperature for 40 minutes. Forty μL of kinase detection reagent (Promega) was added and incubated at room temperature for 1 h. Chemiluminescence was read and IC50s calculated using SoftMax software.
# HCT116 cells = test: Proliferation / cell survival assay (CellTiterGlo, 72 hour); type: cell-based; conditions: Homo sapiens, HCT-116; HCT116, K-Ras mutation; average of two experiments; read-out: IC50, in vitro cell survival / proliferation
# Description: as §1, §2, §3
# Caki-1 cells = test: as above; type: cell-based; conditions: Homo sapiens; Caki (Caki-1), WT; average of two experiments; read-out: IC50, in vitro cell survival / proliferation
# Description: as §1, §2, §3
# Colo205 cells = test: as above; type: cell-based; conditions: Homo sapiens, COLO 205; Colo205, BRAF mutation; average of two experiments; read-out: IC50, in vitro cell survival / proliferation
# Description: as §1, §2, §3
# HepG2 cells = test: as above; type: cell-based; conditions: Homo sapiens; HepG2, N-Ras mutation; average of two experiments; read-out: IC50, in vitro cell survival / proliferation
# Description: as §1, §2, §3
# [2] = Homo sapiens, HT-29, HT29 proliferation, class symbols, read-out: HT29 IC50
# [3] = Homo sapiens, HT-29, HT29, BRAF mutation, average of two experiments, read-out: IC50, in vitro cell survival / proliferation
smiles,measurement,setting,value
"O=S1(=O)Nc2c(cc(F)c(F)c2Nc2ccc(I)cc2F)OCC(O)C(O)CC12CC2 (single isomer, unassigned) [Example 8b]",IC50,HT29 cells; [2],100 to 500 nM
O=S1(=O)Nc2c(cc(F)c(F)c2Nc2ccc(I)cc2F)OC/C=C/CC12CC2 [Example 1],IC50,HT29 cells; [2],100 to 500 nM
"COc1cc(F)c(NS(=O)(=O)C2(CC(O)CO)CC2)c(Nc2ccc(I)cc2F)c1F (centres unmarked) [Example 15, N-(3,6-difluoro-2-(2-fluoro-4-iodophenylamino)-4-methoxyphenyl)-1-(2,3-dihydroxypropyl)cyclopropane-1-sulfonamide]",IC50,HT29 cells; [2],100 to 500 nM
O=S1(=O)Nc2c(cc(F)c(F)c2Nc2ccc(I)cc2F)OCC(O)C(O)CC12CC2 (racemic) [Example 8],IC50,[1],21 nM
same,IC50,HCT116 cells,544 nM
same,IC50,HT29 cells; [3],21 nM
same,IC50,HT29 cells; [2],< 100 nM
same,IC50,Caki-1 cells,> 1000 nM
same,IC50,Colo205 cells,17 nM
same,IC50,HepG2 cells,15 nM
O=S1(=O)Nc2c(cc(F)c(F)c2Nc2ccc(I)cc2F)OCCCCC12CC2 [Example 19],IC50,HT29 cells; [2],> 500 nM
O=S1(=O)Nc2c(cc(F)c(F)c2Nc2ccc(I)cc2Cl)OCC(O)C(O)CC12CC2 (centres unmarked) [Example 11],IC50,HT29 cells; [2],100 to 500 nM
O=S1(=O)Nc2c(cc(F)c(F)c2Nc2ccc(Br)cc2F)OCC(O)C(O)CC12CC2 (centres unmarked) [Example 9],IC50,HT29 cells; [2],> 500 nM
O=S1(=O)Nc2c(cc(F)c(F)c2Nc2ccc(I)cc2)OCC(O)C(O)CC12CC2 (centres unmarked) [Example 10],IC50,HT29 cells; [2],100 to 500 nM
COc1cc(F)c(NS(=O)(=O)C2(CC(O)CO)CC2)c(Nc2ccc(Br)cc2F)c1F (centres unmarked) [Example 16],IC50,HT29 cells; [2],> 500 nM
COc1cc(F)c(NS(=O)(=O)C2(CC(O)CO)CC2)c(Nc2ccc(I)cc2F)c1 (centres unmarked) [Example 17],IC50,HT29 cells; [2],< 100 nM
O=S1(=O)Nc2c(Nc3ccc(I)cc3F)cc(F)cc2OCC(O)C(O)CC12CC2 (centres unmarked) [Example 13],IC50,HT29 cells; [2],< 100 nM
"O=S1(=O)Nc2c(cc(F)c(F)c2Nc2ccc(I)cc2F)OCC(O)C(O)CC12CC2 (single isomer, unassigned) [Example 8a]",IC50,"HT29 cells; HT29 proliferation, class symbols, read-out: HT29 IC50",< 100 nM
"COc1cc(F)c(F)c(Nc2ccc(I)cc2F)c1NS(=O)(=O)C1(C[C@H](O)CO)CC1 [RDEA 119, reference compound]",IC50,HCT116 cells,461 nM
same,IC50,HT29 cells; [3],20 nM
same,IC50,Caki-1 cells,> 1000 nM
same,IC50,Colo205 cells,20 nM
same,IC50,HepG2 cells,17 nM
